Assay results published in patent publication US10294202B2, “Pyrrolidinones as herbicides” (FMC Corporation, priority 2013, dated 2019).
Where two headings read alike, the source gives them in different places.

Assays:
rice = assay: Test C flooded paddy test; format: in vivo, Oryza sativa; conditions: Flood
Outline: (§1)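 2-leaf stage; flood 3 cm over soil; compound into paddy water; depth held; greenhouse 13–15 d; visual % control vs untreated (0 = none, 100 = complete); "-" = not tested.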

ryegrass, Italian = assay: Test A pre-/postemergence herbicide test; format: in vivo, Lolium multiflorum
Outline: (§2)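 Both application timings used compounds in a non-phytotoxic solvent plus surfactant. Pre-emergence: soil sprayed directly after seeding into loam/sand. Post-emergence: foliage of 2–10 cm seedlings (1–2 leaves) sprayed. Injury rated ~10 days later, 0–100.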

ducksalad = assay: Test C flooded paddy test; format: in vivo, Heteranthera limosa; conditions: Flood
Outline: as §1

blackgrass = assay: Test A postemergence herbicide test; format: in vivo, Alopecurus myosuroides
Outline: (§3)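 Young potted plants in a loam–sand mix, one- to two-leaf stage and 2–10 cm tall, receive the test chemical postemergence and stay in a greenhouse for approximately 10 days. Injury is then judged by eye against untreated plants, scored 0 (none) to 100 (complete control).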

barnyardgrass = assay: Test C flooded paddy test; format: in vivo, Echinochloa crus-galli; conditions: Flood
Outline: as §1

galium = assay: Test A postemergence herbicide test; format: in vivo, Galium aparine
Outline: as §3

ragweed = assay: Test A pre-/postemergence herbicide test; format: in vivo, Ambrosia elatior
Outline: as §2

sedge, umbrella = assay: Test C flooded paddy test; format: in vivo, Cyperus difformis; conditions: Flood
Outline: as §1

velvetleaf = assay: Test A pre-/postemergence herbicide test; format: in vivo, Abutilon theophrasti; conditions: for pest or weed control at 125 g/ha / pest or weed control at 500 g/ha / pest or weed control at 1000 g/ha: Abutilon theophrasti, 240 h, read-out: Plant response rating, Velvetleaf; for pest or weed control at 125 g/ha / Velvetleaf plant response rating: 125 g ai/ha; for pest or weed control at 125 g/ha: 0 no effect, 100 complete control; for pest or weed control at 500 g/ha: 500 g ai/ha; for pest or weed control at 1000 g/ha: 1000 g ai/ha
Outline: as §2

morningglory = assay: Test A pre-/postemergence herbicide test; format: in vivo, Ipomoea spp.; conditions: for pest or weed control at 125 g/ha / pest or weed control at 500 g/ha / pest or weed control at 1000 g/ha: Ipomoea, 240 h, read-out: Plant response rating, Morningglory; for pest or weed control at 125 g/ha / Morningglory plant response rating: 125 g ai/ha; for pest or weed control at 125 g/ha: 0 no effect, 100 complete control; for pest or weed control at 500 g/ha: 500 g ai/ha; for pest or weed control at 1000 g/ha: 1000 g ai/ha
Outline: as §2

[1] = 31 g ai/ha, scale of 0 to 100 where 0 is no effect and 100 is complete control, 13 to 15 days
[2] = 62 g ai/ha, scale of 0 to 100 where 0 is no effect and 100 is complete control, 13 to 15 days
[3] = 125 g ai/ha, scale of 0 to 100 where 0 is no effect and 100 is complete control, 13 to 15 days
[4] = 250 g ai/ha, scale of 0 to 100 where 0 is no effect and 100 is complete control, 13 to 15 days
[5] = Postemergence, 125 g ai/ha, visual rating on 0 to 100 scale (0 no effect, 100 complete control), approx. 10 days
[6] = Postemergence, 500 g ai/ha, 0 to 100 scale (0 no effect, 100 complete control)
[7] = Preemergence, 125 g ai/ha, 0 to 100 scale where 0 is no effect and 100 is complete control
[8] = Preemergence, 500 g ai/ha, visual rating on 0 to 100 scale (0 no effect, 100 complete control)
[9] = 125 g ai/ha, visual rating on 0 to 100 scale (0 no effect, 100 complete control), approx. 10 days
[10] = 500 g ai/ha, 0 to 100 scale (0 no effect, 100 complete control)
[11] = post-emergence, Postemergence, 0 to 100 scale
[12] = post-emergence, Postemergence, 0 to 100 scale (0 no effect, 100 complete control)
[13] = pre-emergence, preemergence, 0 to 100 scale
[14] = Preemergence, visual rating on 0 to 100 scale (0 no effect, 100 complete control)
[15] = pre-emergence, Preemergence, visual rating on 0 to 100 scale (0 no effect, 100 complete control), approx. 10 days

Structure (SMILES)	Plant response rating, Rice (rice; [1])	Plant response rating, Rice (rice; [2])	Plant response rating, Rice (rice; [3])	Plant response rating, Ducksalad (ducksalad; [1])	Plant response rating, Ducksalad (ducksalad; [2])	Plant response rating, Ducksalad (ducksalad; [3])	Plant response rating, Barnyardgrass (barnyardgrass; [1])	Plant response rating, Barnyardgrass (barnyardgrass; [2])	Plant response rating, Barnyardgrass (barnyardgrass; [3])	Plant response rating, Sedge, Umbrella (sedge, umbrella; [1])	Plant response rating, Sedge, Umbrella (sedge, umbrella; [2])	Plant response rating, Sedge, Umbrella (sedge, umbrella; [3])	Plant response rating, Rice (rice; 250 g ai/ha, scale 0 to 100)	Plant response rating, Ducksalad (ducksalad; 250 g ai/ha, scale 0 to 100)	Plant response rating, Barnyardgrass (barnyardgrass; 250 g ai/ha, scale 0 to 100)	pest or weed control at 500 g/ha (velvetleaf; [12])	pest or weed control at 500 g/ha (velvetleaf; [13])	Velvetleaf plant response rating (velvetleaf; [14])	pest or weed control at 500 g/ha (morningglory; [12])	Plant response rating, Sedge, Umbrella (sedge, umbrella; 250 g ai/ha, scale 0 to 100)	also measured
CN1CC(c2ccc(F)c(F)c2)C(C(=O)Nc2cccc(F)c2F)C1=O (stereo not drawn) [Compound 303]	0	0	0	50	60	70	0	20	60	0	0	0									Plant response rating, Rice (rice; [4]): 0; Plant response rating, Ryegrass, Italian (ryegrass, Italian; [5]): 40; Plant response rating, Ryegrass, Italian (ryegrass, Italian; [6]): 60; Plant response rating, Ryegrass, Italian (ryegrass, Italian; [7]): 30; Ryegrass, Italian plant response rating (ryegrass, Italian; [8]): 40; Plant response rating, Ducksalad (ducksalad; [4]): 100; Plant response rating, Blackgrass (blackgrass; [9]): 60; Plant response rating, Blackgrass (blackgrass; [10]): 70; Plant response rating, Barnyardgrass (barnyardgrass; [4]): 70; Plant response rating, Galium (galium; [9]): 60; Plant response rating, Galium (galium; [10]): 70; Plant response rating, Ragweed (ragweed; [5]): 20; Plant response rating, Ragweed (ragweed; [6]): 40; Plant response rating, Ragweed (ragweed; [7]): 0; Plant response rating, Sedge, Umbrella (sedge, umbrella; [4]): 0
CC(C)c1cccc(C2CNC(=O)C2C(=O)Nc2ccccc2F)c1 (stereo not drawn) [Compound 318]	0	0	10	50	60	100	20	30	60	0	0	0									Plant response rating, Rice (rice; [4]): 15; Plant response rating, Ryegrass, Italian (ryegrass, Italian; [5]): 20; Plant response rating, Ryegrass, Italian (ryegrass, Italian; [6]): 40; Plant response rating, Ryegrass, Italian (ryegrass, Italian; [7]): 20; Ryegrass, Italian plant response rating (ryegrass, Italian; [8]): 60; Plant response rating, Ducksalad (ducksalad; [4]): 100; Plant response rating, Blackgrass (blackgrass; [9]): 30; Plant response rating, Blackgrass (blackgrass; [10]): 40; Plant response rating, Barnyardgrass (barnyardgrass; [4]): 70; Plant response rating, Galium (galium; [9]): 30; Plant response rating, Galium (galium; [10]): 40; Plant response rating, Ragweed (ragweed; [5]): 0; Plant response rating, Ragweed (ragweed; [6]): 30; Plant response rating, Ragweed (ragweed; [7]): 20; Ragweed plant response rating (ragweed; [8]): 40; Plant response rating, Sedge, Umbrella (sedge, umbrella; [4]): 0
O=C1NCC(c2ccc(C(F)(F)F)cc2)C1C(=O)Nc1cccc(F)c1F (stereo not drawn) [Compound 80, N-(2,3-difluorophenyl)-2-oxo-4-[4-(trifluoromethyl)phenyl]-3-pyrrolidinecarboxamide]	0	0	0	70	70	100	0	0	0	35	35	55	0	100	20	60%	30%	0	0%	65	pest or weed control at 125 g/ha (velvetleaf; [11]): 10%; pest or weed control at 125 g/ha (morningglory; [11]): 0%; pest or weed control at 500 g/ha (morningglory; [13]): 0%; Morningglory plant response rating (morningglory; [14]): 0
O=C1NCC(Br)(c2ccccc2)C1C(=O)Nc1ccccc1F (stereo not drawn) [Compound 92, 4-bromo-N-(2-fluorophenyl)-2-oxo-4-phenyl-3-pyrrolidinecarboxamide]	10	10	20	0	20	20	10	10	10	0	0	0	20	70	10	0%	0%	0	0%	0	pest or weed control at 125 g/ha (velvetleaf; [11]): 0%; pest or weed control at 125 g/ha (morningglory; [11]): 0%; pest or weed control at 500 g/ha (morningglory; [13]): 0%; Morningglory plant response rating (morningglory; [14]): 0
O=C1NCCC1C(=O)N(c1ccc(F)c(F)c1)c1ccccc1F (stereo not drawn) [Compound 5, N-(3,4-difluorophenyl)-N-(2-fluorophenyl)-2-oxo-3-pyrrolidinecarboxamide]		0	0		30	70		0	20		0	0	0	80	55	0%	0%	0	10%	0	pest or weed control at 500 g/ha (morningglory; [13]): 0%; Morningglory plant response rating (morningglory; [14]): 0
O=C1NCC(c2ccc(F)c(F)c2)C1C(=O)Nc1cccc(F)c1F (stereo not drawn) [Compound 17, N-(2,3-difluorophenyl)-4-(3,4-difluorophenyl)-2-oxo-3-pyrrolidinecarboxamide]	0	0	0	40	80	100	0	0	20	0	0	0	0	100	25					40	pest or weed control at 1000 g/ha (velvetleaf; [12]): 50%; pest or weed control at 1000 g/ha (velvetleaf; [15]): 40%; pest or weed control at 1000 g/ha (morningglory; [12]): 0%; pest or weed control at 1000 g/ha (morningglory; [15]): 30%
